Here are results for seven molecules from patent EP0311616B1, “COMBINATIONS OF GAMMA INTERFERONS AND ANTI-INFLAMMATORY OR ANTI-PYRETIC AGENTS FOR TREATING DISEASES” (BIOGEN, INC., priority 1986, dated 1987).

For data set [1] the following is noted: day 6. From the text:
(§1) In each example, following the standardized protocol for the Subrenal Capsule™ Assay [A.E. Bogden, P.M. Haskell, D.J. LePage, D.E. Kelton, W.R. Cobb, H.J. Esber, "Growth Of Human Tumor Xenografts Implanted Under The Renal Capsule Of Normal Immunocompetent Mice", Exp. Cell Biology, 47, pp. 281-93 (1979)], we implanted BL/MEX6 human melanoma established in serial transplantation (Bogden Laboratories) under the renal capsule of normal, immunocompetent mice (BALB/c × DBA/2) F₁ (CDF₁) (Examples 1 and 2) and into (B6C3F₁) mice (Example 3). Each mouse weighed approximately 25 grams. We then divided the mice into treatment groups as follows: group 1: 10 mice, groups 2-7: 8 mice each.
(§2) In each example, for each mouse, we recorded initial body weight, implanted a tumor and recorded an initial in situ tumor measurement (two diameters) in ocular micrometer units (omu). We administered treatment on days 1-5. Survivors were recorded and any mice dying prior to sacrifice were necropsied. On day 6, the mice were sacrificed, final body weights were recorded, implanted kidneys were removed and final in situ tumor measurements were made to determine tumor growth inhibition or regression. We calculated the ratio of average final body weight to initial body weight (FBW/IBW) to monitor systemic toxicity. Change in (Δ) tumor size between day of sacrifice (day 6) and day of tumor implant (day 0) was calculated individually and for each group.

In another data set the test system is BL/MEX6 human melanoma. Briefly: six day Subrenal Capsule Assay, tumor xenograft implanted under the renal capsule of normal immunocompetent mice. The class given is in vivo. The conditions noted are these: for Avg. Δ Tumor Size (mean ± S.D.): change Day 6-Day 0; for Tumor Response: summary of Examples 1-3, IFN-γ i.m., cortisone and prednisone s.c., all other agents p.o., b.i.d., QD1-5, significance of inhibition vs control.
Text: as §1
Over a five-day period, we treated each of groups 4-7 of mice with one of the following anti-inflammatory agents or anti-pyretic agents, either singly or in combination with IFN-γ (IFN-γ dosage: 2,000 µg/Kg/inj., b.i.d., i.m.):
The anti-inflammatory agents or anti-pyretic agents were administered prior to IFN-γ in all combination treatment groups. In each example, we treated groups 1-3 of mice as follows: Group 1: 0.25 ml/inj., b.i.d., i.m. PBS (vehicle treated control) Group 2: 400 mg/Kg/inj., s.c. DTIC [dacarbazine] (positive chemotherapy control) Group 3: 2,000 µg/Kg/inj., b.i.d., i.m. IFN-γ
as §2

Where [2] appears, read: Example 2, CDF1 mice, treatment QD1-5 at doses of Table III.
[3] abbreviates: Example 2, (BALB/c × DBA/2) F1 (CDF1) mice, treatment QD1-5 at doses of Table III.
The mark [4] stands for this setting: Example 2, CDF1 mice, treatment QD1-5 at doses of Table III, day 6.
Setting [5] is: Example 3, B6C3F1 mice, treatment QD1-5 at doses of Table V.
Setting [6] is: Example 3, (B6C3F1) mice, treatment QD1-5 at doses of Table V.
[7] abbreviates: Example 3, B6C3F1 mice, treatment QD1-5 at doses of Table V, day 6.
Setting [8] is: Example 1, CDF1 mice, treatment QD1-5 at doses of Table I.
Where [9] appears, read: Example 1, (BALB/c × DBA/2) F1 (CDF1) mice, treatment QD1-5 at doses of Table I.
Setting [10] is: Example 1, CDF1 mice, treatment QD1-5 at doses of Table I, day 6.

Molecules are shown by their SMILES. Like-named read-outs stand apart in the source and are kept apart here.

Turning to `CC(=O)Oc1ccccc1C(=O)O` [ASA, acetyl salicylic acid], the “FBW/IBW (Final Body Weight/Initial Body Weight)” value (shortened to “FBW/IBW”) in data set [1] (setting [2]) is 0.93. Also, the “Avg. Δ Tumor Size (mean ± S.D.)” value in the data set with BL/MEX6 human melanoma (setting [3]) is reported as 3.2±1.95 omu. In the data set on BL/MEX6 human melanoma (setting [4]), the “Percent Test/Control” value came to 80% and the “Test-Control (Δ tumor size (test) minus Δ tumor size (control), degree of tumor inhibition)” value was -0.80 omu. Further, in the data set with BL/MEX6 human melanoma, the “Tumor Response” value is listed as “-”.
On to `CC(=O)Nc1ccc(O)cc1` [Acetaminophen], for which the “Avg. Δ Tumor Size (mean ± S.D.)” value in the data set with BL/MEX6 human melanoma (setting [3]) is given as 1.9±1.46 omu. Moreover, in the data set on BL/MEX6 human melanoma (setting [4]), the “Percent Test/Control” value was 48% and the “Test-Control (Δ tumor size (test) minus Δ tumor size (control), degree of tumor inhibition)” value is on record as -2.10 omu. In addition, the “Tumor Response” value in the data set with BL/MEX6 human melanoma is “++ (Significant inhibition p<0.01)”.
Consider `C[C@]12CCC(=O)C=C1CC[C@@H]1[C@@H]2C(=O)C[C@@]2(C)[C@H]1CC[C@]2(O)C(=O)CO` [Cortisone], for which the “FBW/IBW” value in data set [1] (setting [5]) stood at 0.96. In addition, in the data set on BL/MEX6 human melanoma (setting [6]), the “Avg. Δ Tumor Size (mean ± S.D.)” value amounted to 1.3±1.73 omu. Besides, in the data set on BL/MEX6 human melanoma (setting [7]), the “Percent Test/Control” value was found to be 37% and the “Test-Control (Δ tumor size (test) minus Δ tumor size (control), degree of tumor inhibition)” value is recorded as -2.20 omu. In the data set with BL/MEX6 human melanoma, the “Tumor Response” value is “+ (Significant inhibition p<0.05)”.
Turning to `CN(C)/N=N/c1[nH]cnc1C(N)=O` [DTIC, dacarbazine], the “FBW/IBW” value in data set [1] (setting [8]) came out at 0.86; in data set [1] (setting [2]), 0.81; in data set [1] (setting [5]), 0.81. Further, the entries for the “Avg. Δ Tumor Size (mean ± S.D.)” value with BL/MEX6 human melanoma (setting [9]), with BL/MEX6 human melanoma (setting [3]) and in the data set on BL/MEX6 human melanoma (setting [6]) were 0.5±0.7 omu, -0.2±0.70 omu and -0.2±1.00 omu, respectively. The “Percent Test/Control” value in the data set on BL/MEX6 human melanoma (setting [10]) is given as 14%. Also, the results for the “Test-Control (Δ tumor size (test) minus Δ tumor size (control), degree of tumor inhibition)” value with BL/MEX6 human melanoma (setting [10]), in the data set with BL/MEX6 human melanoma (setting [4]) and with BL/MEX6 human melanoma (setting [7]) were -3.20 omu, -4.20 omu and -3.70 omu, respectively. For the same molecule, the “R = regression from original size using the formula FTS (final tumor size)-ITS (initial tumor size)/ITS x 100” value in the data set with BL/MEX6 human melanoma (Example 2, CDF1 mice, printed as R plus number in the Percent Test/Control column, day 6) is “R2%”. Further, the “R = regression from original size using the formula (FTS-ITS)/ITS x 100” value in the data set with BL/MEX6 human melanoma (Example 3, B6C3F1 mice, printed as R plus number in the Percent Test/Control column, day 6) is recorded as “R2%”.
For `COc1ccc2c(c1)c(CC(=O)O)c(C)n2C(=O)c1ccc(Cl)cc1` [Indomethacin], the “FBW/IBW” value in data set [1] (setting [8]) is 0.98. Further, the “Avg. Δ Tumor Size (mean ± S.D.)” value in the data set with BL/MEX6 human melanoma (setting [9]) is reported as 3.1±1.69 omu. Besides, in the data set with BL/MEX6 human melanoma (setting [10]), the “Percent Test/Control” value is reported as 84% and the “Test-Control (Δ tumor size (test) minus Δ tumor size (control), degree of tumor inhibition)” value is given as -0.60 omu. In addition, the “Tumor Response” value with BL/MEX6 human melanoma is on record as “-”.
For `COc1ccc2cc([C@H](C)C(=O)O)ccc2c1` [Naproxen] the same measures were 0.99, 2.8±1.28 omu, 76%, -0.90 omu and “-”.
On to `C[C@]12C=CC(=O)C=C1CC[C@@H]1[C@@H]2C(=O)C[C@@]2(C)[C@H]1CC[C@]2(O)C(=O)CO` [Prednisone], for which the “Avg. Δ Tumor Size (mean ± S.D.)” value in the data set on BL/MEX6 human melanoma (setting [6]) was determined as 0.6±1.57 omu. In addition, in the data set on BL/MEX6 human melanoma (setting [7]), the “Percent Test/Control” value was determined as 17% and the “Test-Control (Δ tumor size (test) minus Δ tumor size (control), degree of tumor inhibition)” value was -2.90 omu. Besides, the “Tumor Response” value in the data set with BL/MEX6 human melanoma is “++ (Significant inhibition p<0.01)”.
